We go through 20 molecules from patent US10399989B2, “Pyrazolopyrimidine derivatives as BTK inhibitors for the treatment of cancer” (Loxo Oncology, Inc., priority 2016, dated 2019).

Like-named read-outs stand apart in the source and are kept apart here.

For one test, the target named is BTK^C481S (Homo sapiens (Human), UniProt Q06187, C481S). As to the kind of experiment: BTK^C481S binding affinity (TR-FRET, LanthaScreen). The settings on record: 5 h incubation. In short, it runs like this: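 Tracer-displacement TR-FRET: 5 nM recombinant kinase, 2 nM Eu anti-His antibody and 30 nM Kinase Tracer 236 incubated 5 h with varying inhibitor in Kinase Buffer A. Read at 340 nm excitation, 615/665 nm emission. IC50 from log[inhibitor]–response variable-slope fit.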
A general note: TR-FRET usually uses a lanthanide donor and a delayed reading to cut background.

A further test addresses BTK^WT (Homo sapiens (Human), UniProt Q06187). The experiment in a line: BTK^WT binding affinity (TR-FRET, LanthaScreen). In short, it runs like this:
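Tracer-displacement TR-FRET: 2.5 nM recombinant BTK, 2 nM Eu anti-His antibody and 15 nM Kinase Tracer 236 in Kinase Buffer A with inhibitor for 5 h. Emission read at 615/665 nm (excitation 340 nm); IC50 from variable-slope fit of log concentration vs response.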

For test [1], the system named is OCI-Ly10 human DLBCL cells. As to the kind of experiment: OCI-Ly10 anti-proliferative activity (Resazurin, 72 h). In kind it is cell-based. The settings on record: Homo sapiens, OCI-Ly10, 72 h, read-out: Proliferation OCI-Ly10-IC50. In short, it runs like this:
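Resazurin fluorescence (590 nm, 5 h dye incubation) read after 72 h compound exposure at 37 °C; NFκB-dependent cells seeded at 7.5×10^3/well in 2.5% FBS medium. Day 0 signal subtracted, values normalised to DMSO control; IC50 from log[inhibitor] vs response, variable-slope fit.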
On the technique in general: Alamar Blue is a resazurin reagent that responds to reducing activity.

A further test concerns the target EGFR (Homo sapiens (Human), UniProt P00533). As to the kind of experiment: EGFR binding affinity (TR-FRET, LanthaScreen). The settings on record: 5 h incubation. The procedure, abridged:
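IC50 derived by variable-slope fit of TR-FRET signal (ex 340, em 615 and 665 nm) against inhibitor concentration. Mix contained recombinant GST-detected EGFR at 2.5 nM, Eu anti-GST antibody at 2 nM and Kinase Tracer 199 at 3 nM in Kinase Buffer A, 5 h incubation.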

[2] abbreviates: TR-FRET binding, 5 h incubation, read-out: BTK^WT IC50.
The mark [3] stands for this setting: Table 6, numeric values, read-out: BTK Binding IC50.

EGFR, sequence (P00533 25-1210): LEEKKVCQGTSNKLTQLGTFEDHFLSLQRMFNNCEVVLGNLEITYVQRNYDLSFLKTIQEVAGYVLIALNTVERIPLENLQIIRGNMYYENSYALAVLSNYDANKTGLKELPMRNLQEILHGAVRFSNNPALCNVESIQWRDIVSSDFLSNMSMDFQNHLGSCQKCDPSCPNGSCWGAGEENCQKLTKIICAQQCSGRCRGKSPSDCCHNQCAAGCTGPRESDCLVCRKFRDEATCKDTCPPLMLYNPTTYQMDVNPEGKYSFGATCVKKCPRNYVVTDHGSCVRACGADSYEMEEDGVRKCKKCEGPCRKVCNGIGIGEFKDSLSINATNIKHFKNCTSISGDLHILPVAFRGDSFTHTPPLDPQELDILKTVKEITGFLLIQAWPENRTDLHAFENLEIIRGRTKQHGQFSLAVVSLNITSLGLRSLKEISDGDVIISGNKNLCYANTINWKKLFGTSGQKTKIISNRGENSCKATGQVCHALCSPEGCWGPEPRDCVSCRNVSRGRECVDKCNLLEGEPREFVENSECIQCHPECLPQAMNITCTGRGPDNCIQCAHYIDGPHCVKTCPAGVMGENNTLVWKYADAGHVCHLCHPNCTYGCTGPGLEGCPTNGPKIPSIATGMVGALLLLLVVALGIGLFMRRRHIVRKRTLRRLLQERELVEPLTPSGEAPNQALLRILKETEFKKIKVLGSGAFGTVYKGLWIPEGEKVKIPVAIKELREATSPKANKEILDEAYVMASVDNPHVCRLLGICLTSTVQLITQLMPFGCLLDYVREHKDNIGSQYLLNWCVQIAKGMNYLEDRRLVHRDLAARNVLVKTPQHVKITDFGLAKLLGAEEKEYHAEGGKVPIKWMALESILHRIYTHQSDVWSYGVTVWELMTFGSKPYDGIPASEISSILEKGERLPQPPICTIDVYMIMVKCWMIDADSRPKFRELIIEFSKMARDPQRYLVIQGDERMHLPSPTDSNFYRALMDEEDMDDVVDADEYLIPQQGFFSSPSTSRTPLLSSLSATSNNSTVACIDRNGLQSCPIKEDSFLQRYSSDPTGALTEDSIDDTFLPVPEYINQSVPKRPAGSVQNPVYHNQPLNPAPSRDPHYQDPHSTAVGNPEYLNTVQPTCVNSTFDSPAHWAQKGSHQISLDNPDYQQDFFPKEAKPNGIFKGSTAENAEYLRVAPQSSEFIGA
BTK^C481S, sequence (Q06187 whole entry C481S): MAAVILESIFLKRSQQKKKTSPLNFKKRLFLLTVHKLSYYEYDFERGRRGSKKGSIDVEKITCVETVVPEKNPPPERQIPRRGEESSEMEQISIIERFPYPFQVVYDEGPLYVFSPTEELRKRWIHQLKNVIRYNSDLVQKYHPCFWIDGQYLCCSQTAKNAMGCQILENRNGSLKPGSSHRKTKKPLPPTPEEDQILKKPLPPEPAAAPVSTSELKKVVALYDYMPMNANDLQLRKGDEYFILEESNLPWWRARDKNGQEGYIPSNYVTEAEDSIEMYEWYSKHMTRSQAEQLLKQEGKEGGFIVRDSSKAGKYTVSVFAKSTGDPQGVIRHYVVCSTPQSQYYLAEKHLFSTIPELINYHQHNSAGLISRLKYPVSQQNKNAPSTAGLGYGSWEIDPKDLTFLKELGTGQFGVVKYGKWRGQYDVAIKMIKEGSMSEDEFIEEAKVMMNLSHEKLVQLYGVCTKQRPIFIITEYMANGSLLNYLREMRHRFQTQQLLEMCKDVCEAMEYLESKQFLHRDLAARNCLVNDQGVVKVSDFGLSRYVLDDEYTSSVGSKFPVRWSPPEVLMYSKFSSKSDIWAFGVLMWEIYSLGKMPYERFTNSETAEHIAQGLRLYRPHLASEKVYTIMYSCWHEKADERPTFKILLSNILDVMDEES
BTK^WT, sequence (Q06187 whole entry): as the sequence (Q06187 whole entry C481S) above, with S481C counted along it

Turning to `COc1ccccc1C(=O)NCc1ccc(-c2nn([C@H]3C=C[C@@H](O)C3)c3ncnc(N)c23)cc1` [Example 47, N-[[4-[4-amino-1-[(1R,4S)-4-hydroxycyclopent-2-en-1-yl]pyrazolo[3,4-d]pyrimidin-3-yl]phenyl]methyl]-2-methoxy-benzamide], the IC50 was at most 10 nM at BTK^C481S, at most 10 nM on BTK^WT (setting [2]), 100 to 1000 nM in test [1] and 100 to 1000 nM at EGFR.

Consider `COc1ccccc1C(=O)NCc1ccc(-c2nn([C@H]3C=C[C@@H](OC(=O)C(C)(C)C)C3)c3ncnc(N)c23)cc1` [Example 48, [(1S,4R)-4-[4-amino-3-[4-[[(2-methoxybenzoyl)amino]methyl]phenyl]pyrazolo[3,4-d]pyrimidin-1-yl]cyclopent-2-en-1-yl] 2,2-dimethylpropanoate], for which the IC50 is at most 10 nM at BTK^C481S, 10 to 100 nM on BTK^WT (setting [2]), 100 to 1000 nM in test [1] and 1000 to 10000 nM at EGFR.

Consider `COc1ccccc1C(=O)NCc1ccc(-c2nn(C3C=CCCC3)c3ncnc(N)c23)cc1` (stereo not drawn) [Example 49, N-[[4-(4-amino-1-cyclohex-2-en-1-yl-pyrazolo[3,4-d]pyrimidin-3-yl)phenyl]methyl]-2-methoxy-benzamide], for which the IC50 was at most 10 nM on BTK^C481S; at most 10 nM at BTK^WT (setting [2]); 0.4 nM at BTK^WT (setting [3]); 10 to 100 nM in test [1]; 10 to 100 nM on EGFR.

`COc1ccccc1C(=O)NCc1ccc(-c2nn([C@@H]3C=C[C@@H](O)C3)c3ncnc(N)c23)cc1` [Example 50, N-[[4-[4-amino-1-[(1S,4S)-4-hydroxycyclopent-2-en-1-yl]pyrazolo[3,4-d]pyrimidin-3-yl]phenyl]methyl]-2-methoxy-benzamide]: the IC50 on BTK^C481S was at most 10 nM; on BTK^WT (setting [2]) it was at most 10 nM; in test [1], 100 to 1000 nM; at EGFR it was 100 to 1000 nM.

`COc1ccccc1C(=O)NCc1ccc(-c2nn(C(C)(C)C)c3ncnc(N)c23)cc1` [Example 51, N-[[4-(4-amino-1-tert-butyl-pyrazolo[3,4-d]pyrimidin-3-yl)phenyl]methyl]-2-methoxy-benzamide]: the IC50 was at most 10 nM at BTK^C481S; at most 10 nM at BTK^WT (setting [2]); 0.6 nM at BTK^WT (setting [3]); 10 to 100 nM in test [1]; 10 to 100 nM on EGFR.

On to `COc1ccccc1C(=O)NCc1ccc(-c2nn(C3CC4CC4C3)c3ncnc(N)c23)cc1` (stereo not drawn) [Example 52, N-[[4-[4-amino-1-(3-bicyclo[3.1.0]hexanyl)pyrazolo[3,4-d]pyrimidin-3-yl]phenyl]methyl]-2-methoxy-benzamide], for which the IC50 at BTK^C481S is at most 10 nM; on BTK^WT (setting [2]), at most 10 nM; in test [1], 10 to 100 nM; on EGFR it was 10 to 100 nM.

As for `COc1ccc(F)cc1C(=O)NCc1ccc(-c2nn([C@H]3C=C[C@H](O)C3)c3ncnc(N)c23)cc1` [Example 53, N-[[4-[4-Amino-1-[(1R,4R)-4-hydroxycyclopent-2-en-1-yl]pyrazolo[3,4-d]pyrimidin-3-yl]phenyl]methyl]-5-fluoro-2-methoxy-benzamide], the IC50 on BTK^C481S is at most 10 nM; on BTK^WT (setting [2]), 10 to 100 nM; in test [1], 1000 to 10000 nM; at EGFR it was 1000 to 10000 nM.

In the case of `COc1ccccc1C(=O)NCc1ccc(-c2nn([C@H]3C=C[C@H](F)C3)c3ncnc(N)c23)cc1` [Example 54, N-[(4-{4-amino-1-[(1R,4R)-4-fluorocyclopent-2-en-1-yl]-1H-pyrazolo[3,4-d]pyrimidin-3-yl}phenyl)methyl]-2-methoxybenzamide], the IC50 on BTK^C481S is at most 10 nM; on BTK^WT (setting [2]) it was at most 10 nM; on BTK^WT (setting [3]), 0.7 nM; in test [1], 100 to 1000 nM; at EGFR it was 1000 to 10000 nM.

As for `CCO[C@H]1C=C[C@H](n2nc(-c3ccc(CNC(=O)c4ccccc4OC)cc3)c3c(N)ncnc32)C1` [Example 55, N-[(4-{4-amino-1-[(1R,4R)-4-ethoxycyclopent-2-en-1-yl]-1H-pyrazolo[3,4-d]pyrimidin-3-yl}phenyl)methyl]-2-methoxybenzamide], the IC50 fell in the range of 10 to 100 nM on BTK^C481S, 10 to 100 nM at BTK^WT (setting [2]), 100 to 1000 nM in test [1] and 1000 to 10000 nM at EGFR.

As for `COCCO[C@H]1C=C[C@H](n2nc(-c3ccc(CNC(=O)c4ccccc4OC)cc3)c3c(N)ncnc32)C1` [Example 57, N-[[4-[4-amino-1-[(1R,4R)-4-(2-methoxyethoxy)cyclopent-2-en-1-yl]pyrazolo[3,4-d]pyrimidin-3-yl]phenyl]methyl]-2-methoxy-benzamide], the IC50 fell in the range of 1000 to 10000 nM at BTK^C481S, 100 to 1000 nM at BTK^WT (setting [2]), 100 to 1000 nM in test [1] and 1000 to 10000 nM at EGFR.

Take `COCCNc1ncnc2c1c(-c1ccc(CNC(=O)c3ccccc3OC)cc1)nn2[C@H]1C=C[C@H](O)C1` [Example 58, N-[[4-[1-[(1R,4R)-4-hydroxycyclopent-2-en-1-yl]-4-(2-methoxyethylamino)pyrazolo[3,4-d]pyrimidin-3-yl]phenyl]methyl]-2-methoxy-benzamide]: the IC50 at BTK^C481S was at most 10 nM; on BTK^WT (setting [2]), at most 10 nM; in test [1], 100 to 1000 nM; on EGFR, 1000 to 10000 nM.

Regarding `COc1ccccc1C(=O)NCc1ccc(-c2nn([C@H]3C=C[C@H](N)C3)c3ncnc(N)c23)cc1` [Example 59, N-[(4-{4-amino-1-[(1R,4R)-4-aminocyclopent-2-en-1-yl]-1H-pyrazolo[3,4-d]pyrimidin-3-yl}phenyl)methyl]-2-methoxybenzamide], the IC50 on BTK^C481S fell in the range of 10 to 100 nM; on BTK^WT (setting [2]) it was 10 to 100 nM; in test [1], 100 to 1000 nM; on EGFR, 1000 to 10000 nM.

With `COc1ccccc1C(=O)NCc1ccc(-c2nn([C@H]3C=C[C@H](NC(C)=O)C3)c3ncnc(N)c23)cc1` [Example 60, N-[[4-[1-[(1R,4R)-4-acetamidocyclopent-2-en-1-yl]-4-amino-pyrazolo[3,4-d]pyrimidin-3-yl]phenyl]methyl]-2-methoxy-benzamide], the IC50 on BTK^C481S was at most 10 nM; at BTK^WT (setting [2]), at most 10 nM; in test [1], 100 to 1000 nM; at EGFR, 1000 to 10000 nM.

As for `COc1ccccc1C(=O)NCc1ccc(-c2nn([C@H]3C=C[C@H](n4ccnn4)C3)c3ncnc(N)c23)cc1` [Example 61, N-[[4-[4-amino-1-[(1R,4R)-4-(triazol-1-yl)cyclopent-2-en-1-yl]pyrazolo[3,4-d]pyrimidin-3-yl]phenyl]methyl]-2-methoxy-benzamide], the IC50 was at most 10 nM at BTK^C481S, at most 10 nM on BTK^WT (setting [2]), 100 to 1000 nM in test [1] and 1000 to 10000 nM at EGFR.

For the molecule `COc1ccccc1C(=O)NCc1ccc(-c2nn(C3CCC(C)C3)c3ncnc(N)c23)cc1` (stereo not drawn) [Example 62, N-[[4-[4-amino-1-(3-methylcyclopentyl)pyrazolo[3,4-d]pyrimidin-3-yl]phenyl]methyl]-2-methoxy-benzamide], the IC50 is at most 10 nM on BTK^C481S, at most 10 nM at BTK^WT (setting [2]), 10 to 100 nM in test [1] and 100 to 1000 nM on EGFR.

For the molecule `COc1ccc(F)cc1C(=O)NCc1ccc(-c2nn(C3CCCC3)c3ncnc(N)c23)cc1F` [Example 63, N-[[4-(4-Amino-1-cyclopentyl-pyrazolo[3,4-d]pyrimidin-3-yl)-2-fluoro-phenyl]methyl]-5-fluoro-2-methoxy-benzamide], the IC50 on BTK^C481S is at most 10 nM; at BTK^WT (setting [2]), at most 10 nM; in test [1] it was 10 to 100 nM; on EGFR, 1000 to 10000 nM.

On to `COc1ccc(C)cc1C(=O)NCc1ccc(-c2nn(C3CCCC3)c3ncnc(N)c23)cc1F` [Example 65, N-[[4-(4-amino-1-cyclopentyl-pyrazolo[3,4-d]pyrimidin-3-yl)-2-fluoro-phenyl]methyl]-2-methoxy-5-methyl-benzamide], for which the IC50 was at most 10 nM on BTK^C481S, at most 10 nM at BTK^WT (setting [2]), 100 to 1000 nM in test [1] and 1000 to 10000 nM at EGFR.

As to `COc1ccccc1C(=O)NCc1ccc(-c2nn(C3CCCC3)c3ncnc(N)c23)cc1F` [Example 66, N-[[4-(4-amino-1-cyclopentyl-pyrazolo[3,4-d]pyrimidin-3-yl)-2-fluoro-phenyl]methyl]-2-methoxy-benzamide], the IC50 on BTK^C481S was at most 10 nM; on BTK^WT (setting [2]), at most 10 nM; on BTK^WT (setting [3]) it was 4 nM; in test [1], 10 to 100 nM; at EGFR, 100 to 1000 nM.

`COc1ccc2ccccc2c1C(=O)NCc1ccc(-c2nn(C3CCCC3)c3ncnc(N)c23)cc1` [Example 68, N-[[4-(4-amino-1-cyclopentyl-pyrazolo[3,4-d]pyrimidin-3-yl)phenyl]methyl]-2-methoxy-naphthalene-1-carboxamide]: the IC50 at BTK^C481S was in the range of 100 to 1000 nM; at BTK^WT (setting [2]), 100 to 1000 nM; in test [1], 1000 to 10000 nM; on EGFR, 1000 to 10000 nM.

As for `Nc1ncnc2c1c(-c1ccc(CNC(=O)c3nccc4ccccc34)cc1)nn2C1CCCC1` [Example 69, N-[[4-(4-amino-1-cyclopentyl-pyrazolo[3,4-d]pyrimidin-3-yl)phenyl]methyl]isoquinoline-1-carboxamide], the IC50 on BTK^C481S was in the range of 100 to 1000 nM; on BTK^WT (setting [2]) it was 100 to 1000 nM; in test [1], 1000 to 10000 nM; at EGFR, 1000 to 10000 nM.
